Laboratory results from patent US20060135501A1, “Piperidinyl-thiazole carboxylic acid derivatives as angiogenesis inhibitors” (priority 2002, published 2006).
Values joined by “and” are separate entries in the source; they are usually repeats but may differ in a detail not shown here. Equal values may be shown once.

How the values were obtained:
rhVEGF165-biotin = molecular target: T1, rhVEGF165-biotin (Homo sapiens, UniProt P15692); assay: VEGF-Binding ELISA (dose-response)
T1 sequence (P15692 27-191 isoform P15692-4): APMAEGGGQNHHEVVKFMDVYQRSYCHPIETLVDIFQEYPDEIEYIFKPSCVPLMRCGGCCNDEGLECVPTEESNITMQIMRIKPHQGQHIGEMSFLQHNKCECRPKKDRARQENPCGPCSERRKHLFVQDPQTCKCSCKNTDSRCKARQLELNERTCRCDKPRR
Experimental: The potency of test substances as a VEGF-neutralising moiety is measured in an ELISA format. This assay measures the solution-phase interaction between rhVEGF165-biotin and test sample. Unbound VEGF165-biotin is then immobilised on a solid-phase anti-hVEGF antibody (R&D systems MAB293). The biotin signal is detected with streptavidin-alkaline phosphatase, which gives a colorimetric signal when incubated with p-nitrophenyl phosphate. Plates are read in a spectrophotometer at 405 nm.
(§1) Any test compound that binds to VEGF165-biotin and prevents it from binding to the antibody will lower the color signal and be recognized as a “hit”. Hits were defined as compounds that show>60% inhibition.
VEGF165-biotin+assay buffer ? 0% inhibition
Soluble VEGF receptor (sflt @ 4 nM) ? 70% inhibition
(§2) The primary screening of all library compounds was done at a compound concentration of 50 μM, followed by measuring dose-response effects of “hits” between 0.05 and 500 μM for the calculation of IC50 values.
The compounds were dissolved in DMSO and it was shown that the solvent has no effect on the assay at this concentration.

[1] = test system: human umbilical vein endothelial cells (HUVEC); assay: HUVEC proliferation assay co-stimulated with rhVEGF; assay type: cell-based
Experimental: The HUVEC assay measures the potency of test substances to inhibit in vitro proliferation of human umbilical vein endothelial cells (HUVEC) when co-stimulated with recombinant human vascular endothelial growth factor (rhVEGF).
HUVEC are grown under defined conditions (EGM-2 medium, 37° C., 5% CO2 and 95% humidity). They are seeded into 48-well plates using EBM medium with only 1% serum and incubated for 24 h. This is to ensure that cells are not stimulated before treatment with VEGF and test compound.
Test compounds are diluted in medium to concentrations between 0.05 and 50 μM and dosed together with VEGF165 at 12 ng/ml. This VEGF concentration was determined in a VEGF-dose-response curve to be just sub-optimal for maximum cell proliferation. Cells are incubated for 48 h at above conditions and viable cell density is measured using a tetrazolium compound (MTS). Viable cells reduce MTS into a soluble formazan product, which has an absorbance maximum at 490 nm. The absorbance is directly proportional to cell density.
EBM+1% serum (no VEGF) ? Minimum or Blank
EBM+1% serum (12 ng/ml) ? Maximum

VEGF = molecular target: T2, VEGF (Homo sapiens, UniProt P15692); assay: Initial medium throughput ELISA assay for inhibition of VEGF (primary screening); assay type: binding; conditions: initial assessment, primary screening at compound concentration of 50 μM, repeats listed; for Inhibition (%): 50 µM
T2 sequence (P15692 27-191 isoform P15692-4): T1 sequence (P15692 27-191 isoform P15692-4)
Experimental: Initially the compounds were assayed for inhibition of VEGF in a medium throughput ELISA assay before detailed assessment in the HUVEC and VEGF binding assays in examples in 9 and 10. The data from this initial assessment is presented in table 5 in the column labelled “Inhibition %”.
as §1, §2

[2] = Homo sapiens, HUVEC, 48 h, Table 5, VEGF165 at 12 ng/ml, MTS, repeats listed
[3] = Table 5, VEGF165 at 12 ng/ml, 48 h, MTS, repeats listed
[4] = Table 6, first test (unmarked value)
[5] = Homo sapiens, HUVEC, Table 6, first test (unmarked value)

Row | Structure (SMILES) | IC50 (rhVEGF165-biotin; Table 5, repeats listed) | IC50 [1, 2] [µM] | inhibition at 50 µM (VEGF) [%] | further results
1 | COc1ccc(C(N)=O)cc1NC(=O)c1csc(C2CCN(C(=O)c3c(-c4ccccc4)noc3C)CC2)n1 [Compound 1506-00404] | 153 µM | 10.4 |  | 
2 | COc1ccc(C(N)=O)cc1NC(=O)c1csc(C2CCN(C(=O)c3nnc4cc(C)nn4c3C)CC2)n1 [Compound 1506-00581, N-[5-(aminocarbonyl)-2-methoxyphenyl]-2-{1-[(4,7-dimethylpyrazolo[5,1-c][1,2,4]triazin-3-yl)carbonyl]-4-piperidinyl}-1,3-thiazole-4-carboxamide] | 4.4 µM and 5 µM | 30 | 88 | IC50 [1, 3]: 31 µM
3 | COc1ccc(C(N)=O)cc1NC(=O)c1csc(C2CCN(C(=O)Cc3c[nH]c4ccccc34)CC2)n1 [Compound 1506-00935] | 29 µM |  |  | 
4 | COc1ccc(C(N)=O)cc1NC(=O)c1csc(C2CCN(C(=O)Cc3ccc(F)cc3)CC2)n1 [Compound 1506-01112] | 16.7 µM | 26 |  | 
5 | COc1ccc(C(N)=O)cc1NC(=O)c1csc(C2CCN(C(=O)c3cc4ccccc4o3)CC2)n1 [Compound 1506-01284, N-[5-(aminocarbonyl)-2-methoxyphenyl]-2-[1-(1-benzofuran-2-ylcarbonyl)-4-piperidinyl]-1,3-thiazole-4-carboxamide] | 11 µM and 13.5 µM | 10.1 | 85 | IC50 [1, 3]: 12.6 µM
6 | COc1ccc(C(N)=O)cc1NC(=O)c1csc(C2CCN(C(=O)C#Cc3ccccc3)CC2)n1 [Compound 1506-01461, N-[5-(aminocarbonyl)-2-methoxyphenyl]-2-[1-(3-phenyl-2-propynoyl)-4-piperidinyl]-1,3-thiazole-4-carboxamide] | 4 µM | 11 | 88 | Inhibition (%) (VEGF): 75% and 83%
7 | COc1ccc(C(N)=O)cc1NC(=O)c1csc(C2CCN(C(=O)C3C(C)(C)C3(C)C)CC2)n1 [Compound 1506-01638] | 71 µM and > 100 µM | 5.4 | 89 | IC50 [1, 3]: 6 µM
8 | COc1ccc(C(N)=O)cc1NC(=O)c1csc(C2CCN(C(=O)c3cc(OC)c4ccccc4c3)CC2)n1 [Compound 1506-01810] | 136 µM | 5.6 |  | 
9 | COCCOCCOCC(=O)N1CCC(c2nc(C(=O)Nc3cc(C(N)=O)ccc3OC)cs2)CC1 [Compound 1506-02159] | 128 µM |  |  | 
10 | C=CCSc1ncccc1C(=O)N1CCC(c2nc(C(=O)Nc3cc(C(N)=O)ccc3OC)cs2)CC1 [Compound 1506-02331, 2-(1-{[2-(allylsulfanyl)-3-pyridinyl]carbonyl}-4-piperidinyl)-N-[5-(aminocarbonyl)-2-methoxyphenyl]-1,3-thiazole-4-carboxamide] | 6.5 µM | 22.8 |  | Inhibition (%) (VEGF): 43% and 73% and 79%
11 | COc1ccc(C(N)=O)cc1NC(=O)c1csc(C2CCN(C(=O)c3c(F)cccc3Cl)CC2)n1 [Compound 1506-03039] | 105 µM | 4.2 |  | 
12 | COc1ccc(C(N)=O)cc1NC(=O)c1csc(C2CCN(C(=O)c3ccc(OC)c(OC)c3OC)CC2)n1 [Compound 1506-03211] | 132 µM |  |  | 
13 | COc1ccc(C(N)=O)cc1NC(=O)c1csc(C2CCN(C(=O)c3ccccc3C(F)(F)F)CC2)n1 [Compound 1506-03388] | 6.6 µM | 23 | 93 | Inhibition (%) (VEGF): 87% and 90%
14 | COc1ccc(C(=O)N2CCC(c3nc(C(=O)Nc4cc(C(N)=O)ccc4OC)cs3)CC2)cc1 [Compound 1506-03560] | 3.6 µM | 16.4 |  | 
15 | COc1ccc(C(N)=O)cc1NC(=O)c1csc(C2CCN(C(=O)Cc3ccccc3Cl)CC2)n1 [Compound 1506-03737, N-[5-(aminocarbonyl)-2-methoxyphenyl]-2-{1-[(2-chlorophenyl)acetyl]-4-piperidinyl}-1,3-thiazole-4-carboxamide] |  | 9 | 60 | Inhibition (%) (VEGF): 70% and 74%
16 | COc1ccc(C(N)=O)cc1NC(=O)c1csc(C2CCN(C(=O)COc3ccc(C)c(C)c3)CC2)n1 [Compound 1506-03914, N-[5-(aminocarbonyl)-2-methoxyphenyl]-2-{1-[(3,4-dimethylphenoxy)acetyl]-4-piperidinyl}-1,3-thiazole-4-carboxamide] | 4.5 µM | 17 | 77 | Inhibition (%) (VEGF): 70% and 81%
17 | COc1ccc(C(N)=O)cc1NC(=O)c1csc(C2CCN(C(=O)c3ccc(OC(C)C)cc3)CC2)n1 [Compound 1506-04091] | 16 µM and 15.5 µM |  |  | 
18 | COc1ccc(C(N)=O)cc1NC(=O)c1csc(C2CCN(C(=S)Nc3ccc(N(C)C)cc3)CC2)n1 [Compound 1506-06813, N-[5-(aminocarbonyl)-2-methoxyphenyl]-2-[1-({[4-(dimethylamino)phenyl]amino}carbonothioyl)-4-piperidinyl]-1,3-thiazole-4-carboxamide] | 7.3 µM and 1.5 µM | 9.7 | 88 | IC50 [1, 3]: 8.2 µM
19 | CC#CCOC(=O)N1CCC(c2nc(C(=O)Nc3cc(C(N)=O)ccc3OC)cs2)CC1 [Compound 1506-07095] | 173 µM |  |  | 
20 | COc1ccc(C(N)=O)cc1NC(=O)c1csc(C2CCN(C(=O)NCCC3=CCCCC3)CC2)n1 [Compound 1506-07554] | 142 µM | 35 |  | 
21 | COc1ccc(C(N)=O)cc1NC(=O)c1csc(C2CCN(C(=O)N3CCN(c4ccccn4)CC3)CC2)n1 [Compound 1506-08218, N-[5-(aminocarbonyl)-2-methoxyphenyl]-2-(1-{[4-(2-pyridinyl)-1-piperazinyl]carbonyl}-4-piperidinyl)-1,3-thiazole-4-carboxamide] | 14.8 µM | 15.4 | 52 | Inhibition (%) (VEGF): 60% and 62%
22 | COc1ccc(C(N)=O)cc1NC(=O)c1csc(C2CCN(C(=O)Cc3ccc(SC)cc3)CC2)n1 [Compound 1506-08674] | 11 µM |  |  | 
23 | COc1ccc(C(N)=O)cc1NC(=O)c1csc(C2CCN(C(=O)c3cnn(-c4ccccc4)c3)CC2)n1 [Compound 1506-08772] | 54 µM and 126 µM | 25 | 91 | 
24 | NC(=O)c1ccc(Cl)c(NC(=O)c2csc(C3CCN(C(=O)Cc4ccccc4Cl)CC3)n2)c1 [Compound 1633-00375] |  |  |  | IC50 (rhVEGF165-biotin; Table 6, **tested after re-synthesised, $solubility problems): 9 µM; IC50 (rhVEGF165-biotin; [4]): 5 µM; IC50 ([1]; Homo sapiens, HUVEC, Table 6, **tested after re-synthesised, $solubility problems): 17 µM; IC50 [1, 5]: 0.448 µM
25 | NC(=O)c1ccc(Cl)c(NC(=O)c2csc(C3CCN(C(=O)CCc4ccco4)CC3)n2)c1 [Compound 1633-00377] |  |  |  | IC50 (rhVEGF165-biotin; [4]): 5 µM; IC50 [1, 5]: 0.222 µM
26 | C=CCCOc1ccc(C(=O)N2CCC(c3nc(C(=O)Nc4cc(C(N)=O)ccc4Cl)cs3)CC2)cc1 [Compound 1633-00884] |  |  |  | IC50 (rhVEGF165-biotin; [4]): 30 µM; IC50 [1, 5]: 0.649 µM
27 | NC(=O)Cc1ccc(Cl)c(NC(=O)c2csc(C3CCN(C(=O)CCc4ccco4)CC3)n2)c1 [Compound 1633-01861] |  |  |  | IC50 (rhVEGF165-biotin; [4]): 13 µM; IC50 [1, 5]: 0.803 µM
